In ChEMBL document CHEMBL1142202, “Putative role of beta-1,3 glucans in Candida albicans biofilm resistance” (2007):
In brackets after ≈: the same amount, converted by molar mass. Activity calls are given as the source filed them. The calls are words filed in the database; no cut-off is given here.

Tests used:
Candida albicans [1] = test: Increase in antifungal activity against Candida albicans K1 biofilm cells assessed as 50 percent reduction of optical density in presence of beta 1,3 glucanase after 48 hrs by XTT assay; format: functional
Candida albicans [2] = test: Increase in antifungal activity against Candida albicans K1 biofilm cells assessed as 80 percent reduction of optical density in presence of beta 1,3 glucanase after 48 hrs by XTT assay; format: functional
Candida albicans [3] = test: Antifungal activity against planktonic Candida albicans K1; format: functional
Candida albicans [4] = test: Effect on biofilm cell viability of Candida albicans K1 at 1000 ug/ml; format: functional, organism-based
Candida albicans [5] = test: Antifungal activity against planktonic Candida albicans K1 in presence of biofilm material after 48 hrs by CLSI M27 A micro-broth method; format: functional; settings: K1, 48 h
Candida albicans [6] = test: Antifungal activity against planktonic Candida albicans K1 in presence of laminarin after 48 hrs by CLSI M27 A micro-broth method; format: functional; settings: K1, 48 h
Candida albicans [7] = test: Increase in drug binding to Candida albicans K1 biofilm cell walls, supernatant and matrix as compared to respective planktonic controls; format: functional, organism-based
Candida albicans [8] = test: Antifungal activity against Candida albicans K1 biofilms in in-vivo rat catheter model in presence of beta 1,3-glucanase; format: functional, organism-based

SMILES	fractional inhibitory concentration index (FICI) (Candida albicans [1])	fractional inhibitory concentration index (FICI) (Candida albicans [2])	MIC (Candida albicans [3])	Activity (Candida albicans [4])	MIC (Candida albicans [5])	MIC (Candida albicans [6])	Activity (Candida albicans [7])	Activity (Candida albicans [8])
C[C@@H]1[C@H](O)[C@@H](C)/C=C/C=C/C=C/C=C/C=C/C=C/C=C/[C@H](O[C@@H]2O[C@H](C)[C@@H](O)[C@H](N)[C@@H]2O)C[C@@H]2O[C@](O)(C[C@@H](O)C[C@@H](O)[C@H](O)CC[C@@H](O)C[C@@H](O)CC(=O)O[C@H]1C)C[C@H](O)[C@H]2C(=O)O [AMPHOTERICIN B]	0.2	0.21	–	–	–	–	–	–
OC(Cn1cncn1)(Cn1cncn1)c1ccc(F)cc1F [FLUCONAZOLE]	0.31	0.1	0.5 µg/mL (≈ 1.63 µM)	inactive	> 128 µg/mL	> 128 µg/mL	Active	Active
